Where “and” joins values, the source holds several entries; their conditions need not be identical. Equal entries are not always repeated. Entries after “also recorded” stand apart in the source; their conditions may differ. Structures can show the parent of a compound that is named as a salt. Where two headings read alike, the source gives them in different places.
Columns and labels:
[1] = Stability of DCHA+ salts 3 heated in different solvents (31P NMR); type: physicochemical; details: for degraded at 3.5 h: water, read-out: conversion to phosphate
Protocol: Stability of DCHA^+ Salts 3 Heated in Different Solvents. 40 mg 3 (E or Z) was heated in 5 ml of alcohol mixture, H2 O or acetonitrile. Reaction progress was monitored by ^31 P NMR spectroscopy.

[2] = Stability of C-esters of Troika acid (E-2) in water; type: physicochemical
[3] = pH dependence of the stability of DCHA+ salts 3 in D2O (31P NMR); type: physicochemical; details: 22° C.; for stability in D2O: 24 h, pH 2-8; for remaining at 24 h / Z isomer formed from E-3 (% int, 31P NMR) / F, fragmentation product (HO)2P(O)OH from E-3 (% int) / H, hydrolysis product 4 from E-3 (% int) / E isomer formed from Z-3 (% int, 31P NMR) / F, fragmentation product (HO)2P(O)CN from Z-3 (% int) / H, hydrolysis product 4 from Z-3 (% int): t = 24 h
Protocol: pH Dependence of the Stability of DCHA^+ Salts 3. These experiments were carried out in 5 mm glass NMR tubes in D2 O at 22° C., concentration of 3 0.1% (w/v).

[4] = Alkaline hydrolysis of E-3 and Z-3 to salts 4; type: physicochemical; details: for time to complete hydrolysis: NaOH in D2O; for time of alkaline hydrolysis: aq. NaOH, 25° C., pH 13-14
Protocol: In an additional aspect of the present invention, C-alkyl esters of 3 can be stable under physiological conditions but can be reactive under more vigorous conditions. The stability of the parent Troika acids in H2 O were analyzed. Alkaline hydrolysis by methods known by those skilled in the art of E-3 and Z-3 (preferably, aq. NaOH, at a temperature of 25° C., at pH 13-14) can give the corresponding sodium salts E-4 and Z-4, the Z ester reacting much more rapidly (1 h vs. 70 h for E-3). Both salts 4 can be quite stable at high pH, typically, at pH values greater than 10, and room temperature, but at about pH 6 facile stereospecific fragmentations can be observed. […] The transformation of anti α-keto acid oximes to nitriles in aqueous solution at 40-100°C. is well known to those skilled in the art, but the corresponding process giving a phosphononitrile from a phosphonate α-oxime, observed with Z-4, was unexpected. Furthermore, an additional unexpected result in accordance with the present invention, was the finding that simple removal of the carboxy alkyl group of E-3 can create a reagent (E-4) capable of phosphorylation under mild aqueous conditions.
Synthesis of E4 & 5. 10 N NaOH ([…]) was added to E-3 (10 mg) in D2 O (0.4 ml) in an NMR tube, raising the pH to ~13. Hydrolysis was monitored by ^1 H and ^31 P NMR at room temperature. The reaction was complete in 3 d, giving a product identified by ^13 C and ^31 P NMR as E-4. ^13 C NMR (D2 O): δ (ppm) 161.8 (d, ^1 JPC =176 Hz, P--C=N), 175.4 (d, ^2 JPC =21 Hz, C=O); ^31 P NMR (D2 O, pH=13-14): δ (ppm) 2.8.
Acidification of Z-4 & 6. An analogous procedure for E-4 was carried out with the Z-3 isomer. Hydrolysis was complete within 1 h, yielding Z-4. […] (D2 O, pH=13-14): δ (ppm) 161.1 (d, ^1 JPC =127 Hz, P--C=N), […], 171.9 (d, ^2 JPC =17 Hz, C=O); ^31 P NMR (D2 O, pH=13-14): δ (ppm), 2.0.

[5] = for fragmentation product: about pH 6; for stability at high pH: pH greater than 10, room temperature
[6] = physchem
[7] = type: physicochemical
[8] = Photochemical activation (UV irradiation) of ONBCE-TA in Tris buffer; type: physicochemical
Protocol: Photochemical Activation Example. 5 mg of o-Nitrobenzyl (E)-dihydroxyphosphinyl)(hydroxyimino)acetate (ONBCE-TA) (prepared analogously to PNHDA) dissolved in 0.5 ml of 100 mM Tris buffer (pH 6.9) was irradiated in a Rayonet apparatus for 17 hr at 39° C. Phosphoric acid (the product from phosphorylation of solvent water) was obtained, yield 11%. The phosphorylation was not noticed in the absence of UV irradiation.

[9] = Exp 2, EtOH:i-PrOH 1:1, 79° C., 30 h
[10] = Exp 3, EtOH:t-BuOH 1:1, 79° C., 28 h
[11] = Exp 5, H2O (pH 6-7), 82-84° C., 4.0 h
[12] = Exp 8, H2O (pH 6-7), 82-84° C., 5.7 h

COC(=O)/C(=N\O)P(=O)(O)O [E-2, methyl α-(hydroxyimino)phosphonoacetic acid]
thermal stability ([1]; 1 d in refluxing AN, DCHA+ salt): decomposed to polyphosphates | stability in water ([2]; H2O at physiological pH): stable | stability in water ([2]; neutral and acidic pH, room temperature): stable at both acidic and neutral pH; also recorded: stable in water at room temperature

COC(=O)/C(=N\O)P(=O)(O)O [E-3, Dicyclohexylammonium E-Methyl (Hydroxyimino)phosphonoacetate]
stability in D2O [3]: stable | E isomer (% int, 31P NMR) ([3]; t = 0, pH 2.0, D2O): 100% | E isomer (% int, 31P NMR) ([3]; t = 0, pH 4.0, D2O): 100% | E isomer (% int, 31P NMR) ([3]; t = 0, pH 6.2, D2O): 100% | E isomer (% int, 31P NMR) ([3]; t = 0, pH 8.1, D2O): 100% | E isomer (% int, 31P NMR) ([3]; t = 0, pH 10.4, D2O): 100% | E isomer (% int, 31P NMR) ([3]; t = 0, pH 11.0, D2O): 100% | remaining at 24 h ([3]; pH 2.0, D2O, read-out: E isomer (% int, 31P NMR)): 100% | remaining at 24 h ([3]; pH 4.0, D2O, read-out: E isomer (% int, 31P NMR)): 100% | Z isomer formed from E-3 (% int, 31P NMR) ([3]; pH 6.2, D2O): 8.9% | remaining at 24 h ([3]; pH 6.2, D2O, read-out: E isomer (% int, 31P NMR)): 91.1% | Z isomer formed from E-3 (% int, 31P NMR) ([3]; pH 8.1, D2O): 8.7% | remaining at 24 h ([3]; pH 8.1, D2O, read-out: E isomer (% int, 31P NMR)): 91.3% | F, fragmentation product (HO)2P(O)OH from E-3 (% int) ([3]; pH 10.4, D2O): 1.2% | H, hydrolysis product 4 from E-3 (% int) ([3]; pH 10.4, D2O): 6.9% | Z isomer formed from E-3 (% int, 31P NMR) ([3]; pH 10.4, D2O): 3.0% | remaining at 24 h ([3]; pH 10.4, D2O, read-out: E isomer (% int, 31P NMR)): 87.2% | F, fragmentation product (HO)2P(O)OH from E-3 (% int) ([3]; pH 11.0, D2O): 3.6% | H, hydrolysis product 4 from E-3 (% int) ([3]; pH 11.0, D2O): 18.4% | Z isomer formed from E-3 (% int, 31P NMR) ([3]; pH 11.0, D2O): 1.8% | remaining at 24 h ([3]; pH 11.0, D2O, read-out: E isomer (% int, 31P NMR)): 76.2% | stability on heating ([1]; 5 h in 1:1 MeOH:i-PrOH, 72° C.): unchanged | Et phosphate and i-Pr phosphate formed ([1]; 30 h in 1:1 EtOH:i-PrOH, 79° C.): 84% | Et-phosphate (yield, %) [1, 9]: 48.3% | Z-isomer (yield, %) [1, 9]: 2.5% | i-Pr-phosphate (yield, %) [1, 9]: 35.8% | phosphate (yield, %) [1, 9]: 8.5% | s.m. (%) [1, 9]: 4.9% | Et-phosphate (yield, %) [1, 10]: 33.9% | Z-isomer (yield, %) [1, 10]: 29.4% | phosphate (yield, %) [1, 10]: 9.4% | s.m. (%) [1, 10]: 10.4% | t-Bu-phosphate (yield, %) [1, 10]: 16.9% | phosphate (yield, %) ([1]; Exp 4, H2O (pH 4.0), 82-84° C., 3.5 h): 100% | phosphate (yield, %) [1, 11]: 87.7% | s.m. (%) [1, 11]: 12.3% | phosphate (yield, %) ([1]; Exp 6, MeCN, 81° C., 3.5 h): 0.6% | phosphononitrile (yield, %) ([1]; Exp 6, MeCN, 81° C., 3.5 h): 2.1% | polyphosphates (yield, %) ([1]; Exp 6, MeCN, 81° C., 3.5 h): 80.9% | s.m. (%) ([1]; Exp 6, MeCN, 81° C., 3.5 h): 16.4% | polyphosphate products ([1]; refluxing acetonitrile, several hours): 81% | degraded at 3.5 h ([1]; H2O, pH 4.0, 3.5 h, 82-84° C.): 100% | degraded at 3.5 h ([1]; H2O, pH ~6.5, 3.5 h, 82-84° C.): 88% | time to complete hydrolysis ([4]; pH ~13, room temperature): 3 days | time of alkaline hydrolysis [4]: 70 h

O=C(O)/C(=N\O)P(=O)(O)O [E-4]
fragmentation product [5]: exclusively orthophosphoric acid | stability at high pH [5]: quite stable | half-life ([6]; d2o, pH 5.7): < 10 min | half-life ([6]; water, pH 6): < 10 min

COP(=O)(O)/C(=N/O)C(=O)O [E-13, Bis-DCHA^+ Salt (E-13) of (E)-(Hydroxyimino)-(hydroxymethoxyphosphinyl)acetic Acid]
ethyl and t-butyl methyl phosphate, total ([7]; 1:1 EtOH-t-BuOH): 24% | phosphorylation products ([7]; heated in acetonitrile or EtOH): 16-19%

O=C(OCc1ccccc1[N+](=O)[O-])/C(=N\O)P(=O)(O)O [ONBCE-TA]
phosphoric acid formed (yield) ([8]; UV, 17 hr, 39° C., 100 mM Tris pH 6.9): 11% | phosphorylation without irradiation ([8]; absence of UV irradiation): not noticed

COC(=O)/C(=N/O)P(=O)(O)O [Z-3, Bis(dicyclohexylammonium) Z-Methyl (Hydroxyimino)phosphonoacetate]
stability in D2O [3]: stable | Z isomer (% int, 31P NMR) ([3]; t = 0, pH 2.0, D2O): 100% | Z isomer (% int, 31P NMR) ([3]; t = 0, pH 4.2, D2O): 100% | Z isomer (% int, 31P NMR) ([3]; t = 0, pH 6.7, D2O): 100% | Z isomer (% int, 31P NMR) ([3]; t = 0, pH 8.3, D2O): 100% | Z isomer (% int, 31P NMR) ([3]; t = 0, pH 10.4, D2O): 100% | Z isomer (% int, 31P NMR) ([3]; t = 0, pH 11.0, D2O): 100% | remaining at 24 h ([3]; pH 2.0, D2O, read-out: Z isomer (% int, 31P NMR)): 100% | remaining at 24 h ([3]; pH 4.2, D2O, read-out: Z isomer (% int, 31P NMR)): 100% | E isomer formed from Z-3 (% int, 31P NMR) ([3]; pH 6.7, D2O): 5.0% | remaining at 24 h ([3]; pH 6.7, D2O, read-out: Z isomer (% int, 31P NMR)): 95% | E isomer formed from Z-3 (% int, 31P NMR) ([3]; pH 8.3, D2O): 7.4% | remaining at 24 h ([3]; pH 8.3, D2O, read-out: Z isomer (% int, 31P NMR)): 92.6% | E isomer formed from Z-3 (% int, 31P NMR) ([3]; pH 10.4, D2O): 8.5% | F, fragmentation product (HO)2P(O)CN from Z-3 (% int) ([3]; pH 10.4, D2O): 1.7% | H, hydrolysis product 4 from Z-3 (% int) ([3]; pH 10.4, D2O): 2.6% | remaining at 24 h ([3]; pH 10.4, D2O, read-out: Z isomer (% int, 31P NMR)): 87.2% | F, fragmentation product (HO)2P(O)CN from Z-3 (% int) ([3]; pH 11.0, D2O): 9.2% | H, hydrolysis product 4 from Z-3 (% int) ([3]; pH 11.0, D2O): 14.5% | remaining at 24 h ([3]; pH 11.0, D2O, read-out: Z isomer (% int, 31P NMR)): 76.3% | stability on heating ([1]; 4 h in 1:1 EtOH:i-PrOH, 79° C.): stable | E-isomer (yield, %) [1, 12]: 4.7% and 5% | phosphate (yield, %) [1, 12]: 27.8% and 28% | phosphononitrile (yield, %) [1, 12]: 13.4% and 13% | s.m. (%) [1, 12]: 54.1% | conversion ([1]; H2O, 5.7 h, 82-84° C.): 46% | time to complete hydrolysis ([4]; room temperature): ≤ 0.042 days | time of alkaline hydrolysis [4]: 1 h

O=C(O)/C(=N/O)P(=O)(O)O [Z-4]
fragmentation product [5]: cyanophosphonic acid | stability at high pH [5]: quite stable | half-life ([6]; d2o, pH 6): ~5 min

From US5948931A (priority 1997, dated 1999)
